Data: patent publication US4004029A, “Compositions and method for treating epilepsy and convulsions” (The Upjohn Company, priority 1975, dated 1977)

Legend:
[1] = tested on: electroshock-induced seizures (tonic extensor seizures); experiment: Protection against electroshock-induced seizures in mice; assay type: in vivo, mice (Cartworth farms, male albino); details: for ED50: 25 milliamps
From the text: Med. Chem. 8, 5-8, (1965). […] […] The number of mice protected against tonic extensor seizures is used as a quantal response to calculate the Ed50, by the method of Spearman and […] (see D. J. Finney, "Statistical Methodology in Biological Assay", Hofner Publishing Co., New York, N.Y. 1952, page 524). For control purposes, a group of six mice is similarly treated with diphenylhydantoin and shocked.

in vivo = details: mouse, ip
[2] = tested on: seizures induced by electroshock; experiment: Protection against seizures induced by electroshock in rats; assay type: in vivo, rats (Sprague Dawley male albino); details: for ED50: Rattus norvegicus, ip, 150 milliamps
From the text: After about thirty minutes, the mice are shocked via ear clip electrodes, with a 60-cycle electrical current for 0.2 second, using a current intensity of 25 milliamps. The number of mice protected against tonic extensor seizures is used as a quantal response to calculate the Ed50, by the method of Spearman and […] (see D. J. Finney, "Statistical Methodology in Biological Assay", Hofner Publishing Co., New York, N.Y. 1952, page 524). For control purposes, a group of six mice is similarly treated with diphenylhydantoin and shocked. […] Protection against seizures induced by electroshock is also shown in rats (Sprague Dawley male albino rats weighting 150 to 300 grams each). The testing procedure is identical to that used in Example 9 supra. except that the electroshock current intensity is increased from 25 to 150 milliamps to accommodate this larger species.

[3] = tested on: electrically induced afterdischarge; experiment: Depression of electrically induced afterdischarges in the cat; assay type: in vivo, cat (mongrel cats of either sex); design: duration of afterdischarge: unit not given here; details: for duration of afterdischarge: intravenous
From the text: N. Strow and C. L. Mitchell, Electroenceph. […] Mongrel cats of either sex weighing 1.5-3.0 kg. are anesthetized with halothane. Two pair of stainless steel screw electrodes are placed bilaterally in the skull for stimulation and recording. The cats are paralyzed with decamethonium, artifically respired and after ninety minutes allowed to blow off the halothane. […] is elicited by electrical stimulation across one pair of electrodes (5 second train of 1 millisecond pulses at 50 pulses per second at 5.0-10 milliamps). Duration of discharge is recorded from the second electrode pair. Two groups of controls are taken before test drug administration and duration of […] measured after each dose of test drug.

[4] = Mus musculus, ip, 0.5 h, absorption time 0.5 (Minutes)

`Cc1cccc(C(=O)Nc2c(C)cccc2C)c1N` [N'-(2,6-dimethylphenyl)-2-amino-3-methylbenzamide] gave an ED50 ([1]; IP, absorption time 0.5 (Minutes), 0.5 min) of 5.6 mg/kg, an ED50 [1, 4] of 7 mg/kg and an ED50 ([1]; Mus musculus, po, 1 min, absorption time 1 (Minutes)) of 10 mg/kg. It also gave an ED50 ([1]; Mus musculus, po, 2 min, absorption time 2 (Minutes)) of 10 mg/kg, an ED50 ([1]; Mus musculus, po, 4 min, absorption time 4 (Minutes)) of 11 mg/kg and an ED50 ([1]; Mus musculus, po, 8 min, absorption time 8 (Minutes)) of 32 mg/kg. The ED50 ([1]; Mus musculus, po, 16 min, absorption time 16 (Minutes)) was 112 mg/kg, the ED50 ([1]; Mus musculus, po, 0.4 h, absorption time 24 (Minutes)) was 178 mg/kg and the ED50 ([1]; Mus musculus, po, 0.5 h, absorption time 0.5 (Minutes)) was 10 mg/kg. For the same molecule, the duration of action ([1]; electroshock, Table I) was “long acting”, the LD50 (in vivo) was 297 mg/kg and the ED50 ([2]; 0.5 h, absorption time 30 min) was 4.5 mg/kg. The ED50 ([2]; 1 h, absorption time 60 min) was 2.5 mg/kg, the ED50 ([2]; 4 h, absorption time 240 min) was 4.5 mg/kg and the ED50 ([2]; 8 h, absorption time 480 min) was 7.1 mg/kg. For the same molecule, the “anticonvulsive potency compared with diphenylhydantoin” value ([2]; electroshock, milligram basis) was “more potent on a milligram basis than diphenylhydantoin”, the duration of afterdischarge ([3]; 2.5 mg./kg. total dose) was 31 and the duration of afterdischarge ([3]; 5.0 mg./kg. total dose) was 27. The duration of afterdischarge ([3]; 10.0 mg./kg. total dose) was 4, the duration of afterdischarge ([3]; 20.0 mg./kg. total dose) was 2 and the “Relative Potency (shortening of afterdischarge)” value ([3]; relative to diphenylhydantoin on a milligram basis) was 1.42.

`O=C1NC(=O)C(c2ccccc2)(c2ccccc2)N1` [diphenylhydantoin, reference compound] gave an ED50 [1, 4] of 14 mg/kg, an ED50 ([2]; 0.5 h, absorption time 30 min) of 8 mg/kg and a duration of afterdischarge ([3]; 2.5 mg./kg. total dose) of 30. For the same molecule, the duration of afterdischarge ([3]; 5.0 mg./kg. total dose) was 32, the duration of afterdischarge ([3]; 10.0 mg./kg. total dose) was 9 and the duration of afterdischarge ([3]; 20.0 mg./kg. total dose) was 4.
